This is an account of results in patent publication US20180037568A1, “MODULATORS OF METHYL MODIFYING ENZYMES, COMPOSITIONS AND USES THEREOF” (Constellation Pharmaceuticals, Inc., priority 2015, published 2018).

Data set [1] can be described thus: In vitro metabolism, human liver microsomes. Type of data set: in vitro ADME. Conditions: 10 μM compound, 0.7 mg protein/mL, read-out: intrinsic clearance. On the procedure: (§1) The in vitro metabolism of compound 21 was evaluated by disappearance of compound in mouse, rat, dog and human liver microsomes at 10 μM compound concentration.
(§2) Data is expressed in μL/min/mg protein.

The nature of data set [2]: Plasma-tissue distribution and glucuronide formation in BALB/C mice. Type of data set: in vivo. Conditions: mouse, male BALB/C mice, oral gavage 100 mg/kg, 1 hour after dosing. On the procedure: 1 h after dosing a group of mice (3 mice/group) via oral gavage at 100 mg/kg of compound 21, blood is collected from the submandibular or saphenous vein (˜30 μL) and tissue is collected from the biceps femoris (both sides). After tissue preparation and homogenization, plasma and tissue samples are assayed for parent drug using LC/MS/MS methodologies with internal standard. The glucuronide metabolites (parent mass +176) are also monitored via LC/MS/MS and compared to the internal standard for quantitation.

Data set [3] concerns the target T1, PRC2 containing wt EZH2 (Homo sapiens, UniProt Q15910).
T1 construct: made in house
The data set can be described thus: EZH2 pep BSA Brij 4.0 LowE (IC50): 3H-SAM incorporation into biotinylated H3 peptide. Type of data set: biochemical. Conditions: read-out: EZH2 pep BSA Brij 4.0 LowE (IC50); 20 pM PRC2 wt EZH2, 0.9 μM 3H-SAM, biotinylated H3 peptide substrate, 2 μM H3K27me3 activating peptide. In outline:
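PRC2 (wt EZH2, 20 pM) pre-incubated 120 min with compound, 0.9 μM 3H-SAM and 2 μM H3K27me3 activating peptide in pH 8.5 Tris/DTT/Brij-35/0.1% BSA, 0.8% DMSO. Biotinylated H3K27me1 peptide added (2 μM stock), 5 h at room temperature, EDTA/SAH quench, streptavidin Flashplate capture. IC50 from four-parameter fit versus full-activity and no-enzyme controls.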

In data set [4] the target is EZH2 (Homo sapiens, UniProt Q15910). The data set can be described thus: EZH2 nuc BSA Brij 1.5 (IC50): rPRC2, biotinylated oligonucleosome substrate, 3H SAM FlashPlate. Type of data set: biochemical. Particulars: read-out: EZH2 nuc BSA Brij 1.5 (IC50); 2 nM EZH2, 0.2 μM biotinylated oligonucleosomes, 0.2 μM 3H SAM, 3.6 μM H3K27me3 peptide. A digest of the protocol: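 rPRC2 (2 nM EZH2) with 0.2 μM biotinylated oligonucleosomes, 0.2 μM 3H-SAM and 3.6 μM H3K27me3 peptide in pH 8.5 Tris with Brij-35 and BSA. Compounds, 80–0.16 μM in ten 2-fold steps, pre-incubated 20 min before a 60 min reaction. SAH/EDTA quench, streptavidin FlashPlate capture, scintillation count; IC50 from a 4-parameter fit.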

Data set [5] is described as follows: In vitro metabolism, rat liver microsomes. Type of data set: in vitro ADME. Conditions: 10 μM compound, 0.7 mg protein/mL, read-out: intrinsic clearance. Here is the method:
as §1, §2
On the technique in general: Liver microsomes are a subcellular fraction often used to study metabolism.

Structures are written as SMILES. Where two headings read alike, the source gives them in different places.

T1 sequence (Q15910 whole entry): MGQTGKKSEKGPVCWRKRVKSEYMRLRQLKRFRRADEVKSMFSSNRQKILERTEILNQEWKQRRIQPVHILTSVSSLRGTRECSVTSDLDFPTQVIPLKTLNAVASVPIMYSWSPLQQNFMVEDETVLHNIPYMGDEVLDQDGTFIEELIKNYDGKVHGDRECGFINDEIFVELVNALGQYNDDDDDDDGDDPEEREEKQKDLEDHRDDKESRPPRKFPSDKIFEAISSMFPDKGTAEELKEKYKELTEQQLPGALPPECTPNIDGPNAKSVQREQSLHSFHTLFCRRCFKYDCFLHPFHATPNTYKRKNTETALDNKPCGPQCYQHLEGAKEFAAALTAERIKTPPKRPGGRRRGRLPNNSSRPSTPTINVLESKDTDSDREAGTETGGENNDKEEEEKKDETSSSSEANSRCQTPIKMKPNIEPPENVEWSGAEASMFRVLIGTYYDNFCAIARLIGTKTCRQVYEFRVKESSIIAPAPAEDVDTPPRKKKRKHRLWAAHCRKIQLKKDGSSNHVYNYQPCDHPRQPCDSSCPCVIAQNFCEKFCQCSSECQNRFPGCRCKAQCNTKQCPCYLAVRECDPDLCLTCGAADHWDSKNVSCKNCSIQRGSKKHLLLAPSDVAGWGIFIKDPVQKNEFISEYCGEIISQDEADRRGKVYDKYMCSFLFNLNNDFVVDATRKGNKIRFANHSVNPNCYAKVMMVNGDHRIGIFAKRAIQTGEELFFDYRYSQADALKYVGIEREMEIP
T1 sequence (O75530 whole entry partner): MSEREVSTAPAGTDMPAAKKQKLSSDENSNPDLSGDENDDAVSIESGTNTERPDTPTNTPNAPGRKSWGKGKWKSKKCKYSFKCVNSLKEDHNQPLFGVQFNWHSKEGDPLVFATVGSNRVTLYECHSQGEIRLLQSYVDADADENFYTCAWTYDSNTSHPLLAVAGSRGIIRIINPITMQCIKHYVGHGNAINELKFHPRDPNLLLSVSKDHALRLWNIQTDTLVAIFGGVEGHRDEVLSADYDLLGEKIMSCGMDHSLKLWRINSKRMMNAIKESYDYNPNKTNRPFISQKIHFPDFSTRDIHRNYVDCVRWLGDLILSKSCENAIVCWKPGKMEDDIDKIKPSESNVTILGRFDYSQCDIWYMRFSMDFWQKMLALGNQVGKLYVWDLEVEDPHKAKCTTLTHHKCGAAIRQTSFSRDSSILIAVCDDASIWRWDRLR
T1 sequence (Q15022 whole entry partner): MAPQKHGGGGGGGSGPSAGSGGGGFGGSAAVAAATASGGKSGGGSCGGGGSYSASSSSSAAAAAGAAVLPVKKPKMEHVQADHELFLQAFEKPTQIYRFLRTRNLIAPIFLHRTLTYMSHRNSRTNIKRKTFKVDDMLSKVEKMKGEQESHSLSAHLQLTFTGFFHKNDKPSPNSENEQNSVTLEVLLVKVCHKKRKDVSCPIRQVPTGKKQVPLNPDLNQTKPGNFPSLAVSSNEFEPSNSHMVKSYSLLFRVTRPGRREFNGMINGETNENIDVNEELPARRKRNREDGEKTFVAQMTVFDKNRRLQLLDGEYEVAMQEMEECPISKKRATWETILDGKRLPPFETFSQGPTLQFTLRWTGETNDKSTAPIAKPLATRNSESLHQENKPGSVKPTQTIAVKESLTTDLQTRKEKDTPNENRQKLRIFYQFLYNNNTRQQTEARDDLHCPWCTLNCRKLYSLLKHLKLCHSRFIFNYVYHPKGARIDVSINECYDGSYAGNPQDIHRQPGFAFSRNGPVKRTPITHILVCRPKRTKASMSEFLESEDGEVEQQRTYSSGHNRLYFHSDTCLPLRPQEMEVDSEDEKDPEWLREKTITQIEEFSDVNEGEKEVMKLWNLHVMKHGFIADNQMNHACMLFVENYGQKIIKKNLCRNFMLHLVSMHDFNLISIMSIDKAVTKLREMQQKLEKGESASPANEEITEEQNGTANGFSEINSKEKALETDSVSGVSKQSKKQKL
T1 sequence (Q09028 whole entry partner): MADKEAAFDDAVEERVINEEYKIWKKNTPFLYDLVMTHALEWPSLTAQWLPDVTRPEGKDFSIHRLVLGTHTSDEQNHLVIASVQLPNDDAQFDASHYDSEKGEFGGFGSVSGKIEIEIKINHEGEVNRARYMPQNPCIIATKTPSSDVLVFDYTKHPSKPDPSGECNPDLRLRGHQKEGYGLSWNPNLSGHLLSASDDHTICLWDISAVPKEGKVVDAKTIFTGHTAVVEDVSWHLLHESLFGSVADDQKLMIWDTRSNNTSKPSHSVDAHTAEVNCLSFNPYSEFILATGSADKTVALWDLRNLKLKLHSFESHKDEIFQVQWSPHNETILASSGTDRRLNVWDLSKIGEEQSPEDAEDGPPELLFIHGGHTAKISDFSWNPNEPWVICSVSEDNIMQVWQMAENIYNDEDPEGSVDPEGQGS
T1 sequence (Q6ZN18 whole entry partner): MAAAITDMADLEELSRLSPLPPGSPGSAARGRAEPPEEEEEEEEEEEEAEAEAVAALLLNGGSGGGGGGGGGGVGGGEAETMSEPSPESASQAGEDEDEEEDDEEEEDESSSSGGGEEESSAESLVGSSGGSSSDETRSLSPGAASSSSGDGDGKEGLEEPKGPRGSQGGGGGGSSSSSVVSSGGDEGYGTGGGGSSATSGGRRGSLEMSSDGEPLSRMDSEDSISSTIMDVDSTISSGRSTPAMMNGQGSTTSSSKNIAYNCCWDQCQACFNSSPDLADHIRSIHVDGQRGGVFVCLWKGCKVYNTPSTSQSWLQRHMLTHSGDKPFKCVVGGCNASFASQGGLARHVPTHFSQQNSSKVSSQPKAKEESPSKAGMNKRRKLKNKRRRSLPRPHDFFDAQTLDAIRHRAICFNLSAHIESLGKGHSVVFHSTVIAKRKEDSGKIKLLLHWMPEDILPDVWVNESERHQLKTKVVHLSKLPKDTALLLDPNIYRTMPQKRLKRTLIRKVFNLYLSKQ
Sequence of EZH2 (Q15910 whole entry): as the sequence (Q15910 whole entry) above
Sequence of EZH2 (O75530 whole entry partner): as the sequence (O75530 whole entry partner) above
Sequence of EZH2 (Q15022 whole entry partner): as the sequence (Q15022 whole entry partner) above

As for `COc1cc(C)[nH]c(=O)c1CNC(=O)c1c(C)n(C(C)C2CCN(C)C(C(F)(F)F)C2)c2ccccc12` (single isomer, unassigned) [Compound 21, N-((4-methoxy-6-methyl-2-oxo-1,2-dihydropyridin-3-yl)methyl)-2-methyl-1-(1-(1-methyl-2-(trifluoromethyl)piperidin-4-yl)ethyl)-1H-indole-3-carboxamide], the figures for the microsomal CLint at 10 μM in data set [1] and in data set [5] were 39 µL/min/mg and 35 µL/min/mg, respectively. In addition, the concentration at 1 h was determined as 7240 ng/g in data set [2] (muscle (biceps femoris), biceps femoris, read-out: Conc. in Muscle) and 8370 ng/mL in data set [2] (plasma, read-out: Conc. in Plasma). Further, the Kp at 1 h in data set [2] (muscle/plasma, read-out: Ratio Muscle/Plasma) came out at 0.86. Also, the IC50 in data set [3] and in data set [4] was less than 100 nM throughout.
